Patent US20060051354A1, “Chemotherapeutic agents as anti-cancer vaccine adjuvants and therapeutic methods thereof” (priority 2002, published 2006)

Legend:
[1] = i.m., 50 μl, various concentrations, after 7 days
Experimental: Paclitaxel (PTX) (Bristol-Myers Squibb, Princeton, N.J.), Doxorubicin (DOX) (Gensia, Irvine, Calif.), and Cisplatin (CIS) (Bristol-Myers Squibb) are diluted before injection. Cyclophosphamide (CTX) (Bristol-Myers Squibb) is diluted in sterile water before injection. PTX, CTX, Dox and CIS are injected intramuscularly (i.m.). (50 μl containing various concentrations of chemotherapeutic agents). Muscles are harvested and sectioned to perform histological analysis to assess tissue damage.

melanoma = details: pretreatment with low dose cyclophosphamide before melanoma vaccine, after 2 months of immunization; cited from earlier work
C2C12 cells = test: Paclitaxel toxicity on differentiated C2C12 cells; format: cell-based; details: various concentrations, even high concentration, non-dividing cells
Experimental: […] cells were plated in a 12-wells plate at 7×10^4 cells/ml/well in complete DMEM (10 FBS, 1% Strepto-pen, 1% Hepes) and incubated O/N at 37° C. under 5% CO2 atmosphere. Twenty-four hours later, normal DMEM was changed for DMEM containing 2% Horse serum, 1% Strepto-pen and 1% Hepes. The medium was then changed everyday with the complete DMEM 2% Horse serum. For an extra 7 days, complete DMEM 10% Horse serum was added to the cells. After about 1 week, all cells were differentiated and treated with various concentrations of paclitaxel. Even at a high concentration of paclitaxel, differentiated cells now forming elongated muscular fibers, were not affected by any treatment probably due to the non-dividing state of the cells. This observation support the fact that drugs can be injected in the muscle without necessarily causing damages or cell death.

MCP-1 = test: Paclitaxel induces MCP-1 in muscle tissue (RT-PCR); format: in vivo, Mice; details: i.m., muscle harvested 6 hours after injection
Experimental: Mice are injected intramuscularly (bilaterally) with varying doses of paclitaxel (100 μM to 0.01 μM). Doses of paclitaxel are prepared by 10-fold serial dilutions, in saline, of a 10 mM DMSO stock. The muscles are harvested, on dry ice, 6 hours following injection, and frozen at −80° C. RNA is isolated using TRIZOL reagent (Gibco) as per manufacturers specifications. Ten micrograms of total RNA is reverse transcribed using Superscript RT (Gibco), 500 ng oligodT primers (Gibco), and 250 ng Random Hexamer primers (Gibco) for 20 minutes at room temperature, followed by 2 hours at 42° C.
MCP-1 is amplified from 2 μl of reverse transcription reaction using Titanium PCR kit (Clontech). Amplification primers are as follows:
The PCR reaction is performed for 30 cycles using 100 pmole for each primer, with an annealing temperature of 68 degrees. The PCR products are analyzed on a 1.5% agarose gel, and have an expected size of 397 bps.

B16 cells = test: Melanine levels in B16 cells pretreated with paclitaxel; format: cell-based
Experimental: This unexpected observation lead to the immunological rationale for testing immune-modulating doses of chemotherapy in combination with an antigen. As described in Example II, paclitaxel increased the humoral response against ovalbumin. The testing of paclitaxel as improving a whole-cell vaccine in mice was performed as shown in Examples III and V. This principle is illustrated in FIG. 1. Sterilizing cancer cells with chemotherapeutic agents before immunization of the mice with a composition of cancer cells undergoing apoptosis and/or necrosis and chemotherapeutic agents protected the animals against a lethal tumor challenge. This was unexpected since chemotherapeutic agents are known to be toxic and to trigger systemic immunosuppression. Also, to have in one single composition a chemotherapeutic agent(s) and an antigen administered simultaneously simplifies the use of chemotherapeutic agents as potential vaccine adjuvants. The presence of the chemotherapeutic agent in the anti-cancer vaccine composition also renders moot or diminish the need to proceed to the inactivation by irradiation of the tumoral cells forming the anti-cancer vaccine before reinoculation. The drugs, especially paclitaxel, helps to raise an immune response by inducing a variety of genes known to be antigenic. […]

ovalbumin = test: Humoral response against ovalbumin (ELISA) after intramuscular immunization; format: in vivo, Mice; details: 1 μg ovalbumin i.m. without adjuvant, 2 weeks
Experimental: The animals are injected intramuscularly into tibialis anterior muscles with 50 μl containing either 1 μg of ovalbumin formulated with or without paclitaxel at 10E^−2 molar. Mice are sacrificed at various time points to perform the ELISA (2 weeks post-immunization). Ovalbumin-specific antibody responses are quantified by enzyme-linked immunosorbent assay (ELISA). Microtiter plates are coated overnight with 1 μg per well of ovalbumin. Plates are then washed once with PBS-Tween 0.01% and blocked for 2 hours at 37° C. with PBS+1% BSA. The plates are then incubated with serial dilutions of mouse sera for 1 hour at 37° C. […] The data are expressed as the percentage of responding mice and as the mean titers of responding mice.

Row | Molecule | infiltration of lymphocytes (histology of injected muscle) [1] | tissue damage (histology of injected muscle) [1] | other results
1 | N.N.[Cl][Pt][Cl] [Cisplatin] | mild to moderate | no sign of tissue damage | 
2 | O=P1(N(CCCl)CCCl)NCCCO1 (stereo not drawn) [Cyclophosphamide] | mild to moderate | no sign of tissue damage | patients with augmented antibody and/or cellular immune responses to melanoma (melanoma): 83%
3 | COc1cccc2c1C(=O)c1c(O)c3c(c(O)c1C2=O)C[C@@](O)(C(=O)CO)C[C@@H]3O[C@H]1C[C@H](N)[C@H](O)[C@H](C)O1 [Doxorubicin] | mild to moderate | no sign of tissue damage | 
4 | CC(=O)O[C@H]1C(=O)[C@@]2(C)[C@H]([C@H](OC(=O)c3ccccc3)[C@]3(O)C[C@H](OC(=O)[C@H](O)[C@@H](NC(=O)c4ccccc4)c4ccccc4)C(C)=C1C3(C)C)[C@]1(OC(C)=O)CO[C@@H]1C[C@@H]2O [Paclitaxel] | mild to moderate | no sign of tissue damage | effect on differentiated C2C12 cells (toxicity) (C2C12 cells): not affected; Fold-induction over GAPDH (MCP-1 RT-PCR) (MCP-1; 0.01 μM per injection): 2 fold; Fold-induction over GAPDH (MCP-1 RT-PCR) (MCP-1; 1 μM per injection): 3 fold; Fold-induction over GAPDH (MCP-1 RT-PCR) (MCP-1; 100 μM per injection): 6 fold; Melanine levels in B16 cells (B16 cells): increases
5 | Ovalbumin: model protein antigen injected without adjuvant (protein, UniProt P01012 2-386, looked up) Ovalbumin: GSIGAASMEFCFDVFKELKVHHANENIFYCPIAIMSALAMVYLGAKDSTRTQINKVVRFDKLPGFGDSIEAQCGTSVNVHSSLRDILNQITKPNDVYSFSLASRLYAEERYPILPEYLQCVKELYRGGLEPINFQTAADQARELINSWVESQTNGIIRNVLQPSSVDSQTAMVLVNAIVFKGLWEKAFKDEDTQAMPFRVTEQESKPVQMMYQIGLFRVASMASEKMKILELPFASGTMSMLVLLPDEVSGLEQLESIINFEKLTEWTSSNVMEERKIKVYLPRMKMEEKYNLTSVLMAMGITDVFSSSANLSGISSAESLKISQAVHAAHAEINEAGREVVGSAEAGVDAASVSEEFRADHPFLFCIKHIATNAVLFFGRCVSP |  |  | % seroconversion (ovalbumin): 20%
